# Key:
# [1] = test system: MCF7; experiment: Anticancer activity against human MCF7 assessed as inhibition of cell growth by MTT assay; type: functional, cell-based
# [2] = test system: MDA-MB-231; experiment: Anticancer activity against human MDA-MB-231 assessed as inhibition of cell growth by MTT assay; type: functional, cell-based
# [3] = test system: HEK293; experiment: Cytotoxicity against human HEK293 assessed as inhibition of cell growth; type: cell-based
IC50 [1],IC50 [2],Compound,Activity [3]
50.2 µM,> 50 µM,COc1ccc2cc(-c3ccc(C)cc3)c(=O)oc2c1CCC(C)C,–
47 µM,> 50 µM,COc1ccc2ccc(=O)oc2c1CCC(C)C,–
25.8 µM,30.2 µM,COc1ccc2ccc(=O)oc2c1CC=C(C)C [OSTHOLE],–
5.7 µM,7.42 µM,CC(C)CCc1c(O)ccc2cc(-c3ccc(OC(F)(F)F)cc3)c(=O)oc12,–
24.5 µM,38.1 µM,COc1ccc2cc(-c3ccc(C(F)(F)F)cc3)c(=O)oc2c1CCC(C)C,–
> 50 µM,> 50 µM,CC(C)CCc1c(Oc2cc(=O)oc3cc(O)ccc23)ccc2ccc(=O)oc12,–
42.9 µM,> 50 µM,CC(C)CCc1c(O)ccc2cc(-c3ccc(C(F)(F)F)cc3)c(=O)oc12,–
> 50 µM,> 50 µM,CC(C)CCc1c(O)ccc2ccc(=O)oc12,–
45.9 µM,> 50 µM,COc1ccc2c(Oc3ccc4cc(-c5ccc(C(F)(F)F)cc5)c(=O)oc4c3CCC(C)C)cc(=O)oc2c1,–
27.3 µM,33.6 µM,COc1ccc2cc(-c3ccc(F)c(F)c3)c(=O)oc2c1CCC(C)C,–
52.6 µM,> 50 µM,COc1ccc2cc(-c3ccc(F)cc3)c(=O)oc2c1CCC(C)C,–
51.6 µM,> 50 µM,COc1ccc(-c2cc3ccc(OC)c(CCC(C)C)c3oc2=O)cc1OC,–
3.23 µM,4.15 µM,COc1ccc2cc(-c3ccc(O)cc3)c(=O)oc2c1CCC(C)C,–
1.27 µM,5.23 µM,COc1ccc2cc(-c3ccc(Cl)cc3)c(=O)oc2c1CCC(C)C,Non-toxic
0.24 µM,0.31 µM,COc1ccc2cc(-c3ccc(OC(F)(F)F)cc3)c(=O)oc2c1CCC(C)C,Non-toxic
> 50 µM,> 50 µM,COc1ccc2cc(-c3cccnc3)c(=O)oc2c1CCC(C)C,–
> 50 µM,> 50 µM,COc1ccc2c(Oc3ccc4ccc(=O)oc4c3CCC(C)C)cc(=O)oc2c1,–

# Reference: ChEMBL document CHEMBL1287759, “Discovery of novel osthole derivatives as potential anti-breast cancer treatment” (Bioorg Med Chem Lett, 2010)
